Each structure is given as a SMILES string. pEC50: −log10 of the molar value. ≈ marks a conversion by molar mass, not a printed value. Positions of bridges follow the written chain, without caps; N, C: chain ends. Non-standard residues stand in square brackets, D forms with d. Residues, ends and D or L forms follow the SMILES beside them. Phe(3,4-Cl2) = N[C@@H](Cc1ccc(Cl)c(Cl)c1)C(=O)O; Lys(N3) = [N-]=[N+]=NCCCC[C@H](N)C(=O)O; R8 = C=CCCCCCC[C@@](C)(N)C(=O)O; Cba = N[C@@H](CC1CCC1)C(=O)O; S5 = C=CCCC[C@](C)(N)C(=O)O; βAla = NCCC(=O)O

The pEC50 is −log10 of the EC50, conventionally taken in molar units. A lower pEC50 goes with a high EC50. As usually defined, the logD is lipophilicity at a set pH, counting ionised and neutral species. Lower therefore signals lower lipophilicity.

Series [1] can be described thus: Experimental LogD (partition coefficient). As to conditions: for logD: not stated, Partition Coeff LogD.
A short description of the next series: in vitro. As to conditions: Nanoclick permeability assay EC50. The gist of the method: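 Azido-peptide permeability was read as loss of NanoBRET signal (donor 450 nm, acceptor 610 nm) after adding NanoBret618-azide at 10 μM final.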
For the next series, the system named is HCT116 cells. The series can be described thus: Lactate dehydrogenase (LDH) release assay. In kind it is cell-based. The gist of the method:
(§1)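 Geometric means of at least three independent biological runs are given for LDH release measured in HCT116 cells stably expressing a p53-driven β-lactamase reporter. Plating density was 8000 cells/well; DMSO in wells was 0.5%.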

The nature of series [2]: Lactate dehydrogenase (LDH) release assay. In kind it is cell-based. As to conditions: LDH: Cytotoxicity assay: EC50. The gist of the method:
as §1

Series [3] can be described thus: Solubility assay (kinetic solubility, PBS pH 7). It is filed as physicochemical. The settings on record: pH 7, PBS. In short, it runs like this: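 Quantitation uses an external standard at 100 µM, prepared from 10 mM stock in acetonitrile:methanol:DMSO (10:80:10). Solubility (µM) = (peak area of sample ÷ peak area of standard) × standard concentration.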

On to `CC(=O)N[C@@H](CCCCN=[N+]=[N-])C(=O)NCCC(=O)N[C@@H](CC(C)C)C(=O)N[C@H](C(=O)N[C@@H](Cc1ccccc1)C(=O)N[C@]1(C)CCCCCCC=CCCC[C@@](C)(C(=O)N[C@@H](CO)C(=O)N[C@@H](C)C(=O)N[C@@H](C)C(N)=O)NC(=O)[C@H](CC2CCC2)NC(=O)[C@H](CCC(N)=O)NC(=O)[C@H](C)NC(=O)[C@H](Cc2ccc(Cl)c(Cl)c2)NC(=O)[C@H](Cc2ccc(O)cc2)NC(=O)[C@H](CCC(=O)O)NC1=O)[C@@H](C)O` [MP-765] (Ac-[Lys(N3)][βAla]LTF[R8]EY[Phe(3,4-Cl2)]AQ[Cba][S5]SAA-NH2; staple 6-13), for which the “Partition Coeff LogD” value in series [1] is given as “Poorly Behaved”. Further, the EPSA in the series “physchem” was 199 A^2. Moreover, the cell entry EC50 in “in vitro” came to 1.83 µM. In the series on HCT116 cells, the “LDH: Cytotoxicity assay: % Effect” value is on record as 2.873%. Further, the pEC50 in series [2] is < 4.30. For the same compound, the Solubility entry in series [3] is on record as “Poorly Behaved”.
As to `CC(C)C[C@@H]1NC(=O)[C@H](C)NC(=O)[C@H](Cc2c[nH]c3ccccc23)NC(=O)[C@H](Cc2ccc(O)cc2)NC(=O)[C@H](CCC(=O)O)NC(=O)[C@](C)(NC(=O)[C@H](Cc2ccccc2)NC(=O)[C@H](CO)NC(=O)[C@@H](NC(=O)[C@H](CO)NC(=O)[C@@H](N)CCCCN=[N+]=[N-])[C@@H](C)O)CCCCCCC=CCCC[C@@](C)(C(N)=O)NC(=O)[C@H](CC(C)C)NC1=O` [MP-0178], in series [1], the log distribution coefficient (logD) was 2.59. In “physchem”, the EPSA was determined as 235 A^2. Further, the cell entry EC50 in “in vitro” was found to be 1.31 µM. Moreover, the “LDH: Cytotoxicity assay: % Effect” value with HCT116 cells worked out at 0.79%. In series [2], the negative logarithm of the EC50 (pEC50) is < 4.30. For the same compound, the Solubility entry in series [3] was “Poorly Behaved”.
For `CC(=O)N[C@@H](CCCCN=[N+]=[N-])C(=O)NCCC(=O)N[C@@H](CC(C)C)C(=O)N[C@H](C(=O)N[C@@H](Cc1ccccc1)C(=O)N[C@]1(C)CCCCCCC=CCCC[C@@](C)(C(=O)N[C@@H](CO)C(=O)N[C@@H](C)C(=O)N[C@@H](C)C(N)=O)NC(=O)[C@H](CC2CCC2)NC(=O)[C@H](CCC(N)=O)NC(=O)[C@H](C)NC(=O)[C@H](Cc2c[nH]c3ccccc23)NC(=O)[C@@H](CCC(=O)O)NC(=O)[C@H](C)NC1=O)[C@@H](C)O` [MP-036] (Ac-[Lys(N3)][βAla]LTF[R8]A[dE]WAQ[Cba][S5]SAA-NH2; staple 6-13), the “Partition Coeff LogD” value in series [1] is recorded as “Poorly Behaved”. The EPSA in the series “physchem” amounted to 188 A^2. In the series “in vitro”, the cell entry EC50 came out at 0.053 µM. For the same compound, in the series on HCT116 cells, the “LDH: Cytotoxicity assay: % Effect” value worked out at 2.628%. Also, the negative logarithm of the EC50 (pEC50) in series [2] is < 4.30. Besides, the Solubility result in series [3] is “Poorly Behaved”.
On to `CC(=O)N[C@@H](CCCCN=[N+]=[N-])C(=O)NCCC(=O)N[C@@H](CC(C)C)C(=O)N[C@H](C(=O)N[C@@H](CC1CCC1)C(=O)N[C@]1(C)CCCCCCC=CCCC[C@@](C)(C(=O)N[C@@H](CO)C(=O)N[C@@H](C)C(=O)N[C@@H](C)C(N)=O)NC(=O)[C@H](Cc2c[nH]c3ccccc23)NC(=O)[C@H](CCC(N)=O)NC(=O)[C@H](C)NC(=O)[C@H](Cc2ccccc2)NC(=O)[C@H](Cc2ccc(O)cc2)NC(=O)[C@H](CCC(=O)O)NC1=O)[C@@H](C)O` [MP-791] (Ac-[Lys(N3)][βAla]LT[Cba][R8]EYFAQW[S5]SAA-NH2; staple 6-13), for which the logD in series [1] was 1.34. In addition, in “physchem”, the EPSA is 197 A^2. Besides, the cell entry EC50 in the series “in vitro” was > 10 µM. In the series with HCT116 cells, the “LDH: Cytotoxicity assay: % Effect” value is reported as 45.16%. The compound further had a pEC50 in series [2] of 4.46. Moreover, the solubility kinetic in series [3] (pH 7, aqueous buffer, kinetic from dmso stock, read-out: Solubility) is 28 µM (≈ 55.2 µg/mL).

(Values after article PMC10786919, “Design-rules for stapled peptides with in vivo activity and their application to Mdm2/X antagonists” (Nature Communications, 2024).)
